# EP0001174A1, “A peptide and the salts thereof, processes for their preparation and compositions containing them” (NYEGAARD & CO. A/S, priority 1977, dated 1979)
# Non-standard residues stand in square brackets, D forms with d. Residues, ends and D or L forms follow the SMILES beside them. pGlu = O=C1CC[C@@H](C(=O)O)N1
# Test: biological activity of the synthetic peptide compared with the biogenic material isolated from urine (test not described; anorexigenic properties stated)
# Conditions: no method or figures given
compound,measurement,value
"O=C(O)CNC(=O)[C@H](Cc1cnc[nH]1)NC(=O)[C@@H]1CCC(=O)N1 [synthetic peptide, L-(pyro)glutamyl-L-histidyl-glycine] ([pGlu]-His-Gly-OH)",biological activity,comparable biological activity
